Measurements as given in patent US10045980B2, “Inhibitor of p38 map kinase” (RESPIVERT LTD, priority 2014, dated 2018).

What was measured:
c-Src = biological target: T1, c-Src (Homo sapiens, UniProt P12931); experiment: c-Src enzyme inhibition (Z-LYTE FRET); assay type: biochemical
T1 construct: purchased Life Technologies
Procedure: (§1) The enzyme inhibitory activities of the compound disclosed herein were determined by FRET using synthetic peptides labelled with both donor and acceptor fluorophores (Z-LYTE, Life Technologies, Paisley, UK).
(§2) The relevant enzyme (1000 ng/mL, 1400 ng/mL or 2000 ng/mL respectively, 2.5 μL) was incubated with the test compound (either 40 μg/mL, 12 μg/mL, 4 μg/mL, 1.2 μg/mL, 0.4 μg/mL, 0.12 μg/mL, 0.04 μg/mL, 0.012 μg/mL, 0.004 μg/mL or 0.0012 μg/mL, 2.5 μL each) for 2 h at RT. The FRET peptides (8 μM, 2.5 μL), and appropriate ATP solutions (2.5 μL, 800 μM for c-Src, and 60 μM ATP for HCK and Syk) were then added to the enzyme/compound mixtures and incubated for 1 h at RT. Development reagent (protease, 5 μL) was added for 1 h prior to detection in a fluorescence microplate reader (EnVision, Perkin Elmer).
(§3) In all cases, the site-specific protease cleaves non-phosphorylated peptide only and eliminates the FRET signal. Phosphorylation levels of each reaction were calculated using the ratio of coumarin emission (donor) over fluorescein emission (acceptor), for which low ratios indicate high phosphorylation and high ratios indicate low phosphorylation levels.

Syk = biological target: T2, Syk (Homo sapiens, UniProt P43405); experiment: Syk enzyme inhibition (Z-LYTE FRET); assay type: biochemical
T2 construct: purchased Life Technologies
Procedure: as §1, §2, §3

[1] = biological target: T3, p38 MAPKα isoform (MAPK14) (Homo sapiens, UniProt Q16539); experiment: p38 MAPKα enzyme inhibition (Z-LYTE FRET); assay type: biochemical
T3 construct: purchased Life Technologies
T3 sequence (Q16539 whole entry, canonical isoform): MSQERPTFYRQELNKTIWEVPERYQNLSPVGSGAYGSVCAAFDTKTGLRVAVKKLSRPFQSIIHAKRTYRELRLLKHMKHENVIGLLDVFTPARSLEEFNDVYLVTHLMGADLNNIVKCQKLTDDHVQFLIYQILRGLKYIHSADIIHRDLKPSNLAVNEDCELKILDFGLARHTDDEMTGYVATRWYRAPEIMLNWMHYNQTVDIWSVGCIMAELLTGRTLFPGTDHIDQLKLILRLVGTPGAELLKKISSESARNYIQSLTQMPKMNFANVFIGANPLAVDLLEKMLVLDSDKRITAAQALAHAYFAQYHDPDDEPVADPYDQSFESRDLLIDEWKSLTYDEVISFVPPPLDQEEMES
Procedure: as §1
The enzyme (40 ng/mL, 2.5 μL) was incubated with the test compound (2.5 μL of either 40 μg/mL, 12 μg/mL, 4 μg/mL, 1.2 μg/mL, 0.4 μg/mL, 0.12 μg/mL, 0.04 μg/mL, 0.012 μg/mL, 0.004 μg/mL or 0.0012 μg/mL) for 2 h at RT. […] Development reagent (protease, 5 μL) was added for 1 h prior to detection in a fluorescence microplate reader (EnVision, Perkin Elmer, Waltham, Mass., USA).
as §3

[2] = system: BEAS2B cells infected with human rhinovirus RV16; experiment: Rhinovirus-induced IL-8 release; assay type: cell-based; details: FIG. 9
Procedure: Human rhinovirus RV16 is obtained from the American Type Culture Collection (Manassas, Va.). Viral stocks are generated by infecting MRC5 cells with HRV until 80% of the cells were cytopathic.
BEAS2B cells are infected with HRV at an MOI of 1.2 and incubated for 1 h at 33° C. with gentle shaking for to promote absorption. The cells are then washed with PBS, fresh media added and the cells are incubated for a further 72 h. The supernatant is collected for assay of IL-8 concentrations using a Duoset ELISA development kit (R&D systems, Minneapolis, Minn.). Compounds are added 2 h before HRV infection and 1 h after infection when non-infected HRV is washed out.

BEAS2B cells = experiment: Poly I:C-induced ICAM-1 expression in BEAS2B cells; assay type: cell-based; details: Homo sapiens, BEAS-2B, 18 h after poly I:C transfection, read-out: PolyIC/ICAM1 IC50 (BEAS2B)
Procedure: Poly I:C was used in these studies as a simple, RNA virus mimic. Poly I:C-Oligofectamine mixture (2% Oligofectamine±1 μg/mL Poly I:C, 25 μL; Life Technologies and Invivogen Ltd., San Diego, Calif., respectively) was transfected into BEAS2B cells (human bronchial epithelial cells, ATCC). Cells were pre-incubated with final concentrations of test compounds for 2 h and the level of ICAM-1 expression on the cell surface was determined by cell-based ELISA. […]
The cells were washed with PBS-Tween (3×200 μL) and incubated with the secondary antibody (100 μL; HRP-conjugated anti-rabbit IgG, Dako Ltd., Glostrup, Denmark). […] The ICAM-1 signal was detected by reading the absorbance at 450 nm against a reference wavelength of 655 nm using a spectrophotometer. The cells were then washed with PBS-Tween (3×200 μL) and total cell numbers in each well were determined by reading absorbance at 595 nm after Crystal Violet staining (50 μL of a 2% solution in PBS) and elution by 1% SDS solution (100 μL) in PBS. The measured OD 450-655 readings were corrected for cell number by dividing with the OD595 reading in each well. The inhibition of ICAM-1 expression was calculated at each concentration of test compound by comparison with vehicle control.

p38MAPKγ (MAPK12) = biological target: T4, p38MAPKγ (MAPK12) (Homo sapiens, UniProt P53778); experiment: p38 MAPKγ enzyme inhibition (Z-LYTE FRET); assay type: biochemical
T4 construct: purchased Life Technologies
T4 sequence (P53778 1-367): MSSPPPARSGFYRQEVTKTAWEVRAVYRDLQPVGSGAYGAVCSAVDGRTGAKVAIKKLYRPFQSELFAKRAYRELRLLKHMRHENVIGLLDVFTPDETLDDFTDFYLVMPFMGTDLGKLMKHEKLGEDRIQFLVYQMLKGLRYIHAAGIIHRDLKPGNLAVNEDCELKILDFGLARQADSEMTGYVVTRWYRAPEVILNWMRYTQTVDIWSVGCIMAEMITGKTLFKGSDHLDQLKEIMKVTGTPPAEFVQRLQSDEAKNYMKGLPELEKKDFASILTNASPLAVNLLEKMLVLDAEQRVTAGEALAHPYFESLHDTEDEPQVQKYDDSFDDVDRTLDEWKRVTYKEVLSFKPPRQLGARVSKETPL
Procedure: as §1
The enzyme (800 ng/mL, 2.5 μL) was incubated with the test compound (2.5 μL at either 40 μg/mL, 12 μg/mL, 4 μg/mL, 1.2 μg/mL, 0.4 μg/mL, 0.12 μg/mL, 0.04 μg/mL, 0.012 μg/mL, 0.004 μg/mL or 0.0012 μg/mL) for 2 h at RT. The FRET peptides (8 μM, 2.5 μL), and appropriate ATP solution (2.5 μL, 400 μM) were then added to the enzymes/compound mixtures and incubated for 1 h at RT. Development reagent (protease, 5 μL) was added for 1 h prior to detection in a fluorescence microplate reader (EnVision, Perkin Elmer).
as §3

GSK 3α enzyme isoform = biological target: T5, GSK 3α enzyme isoform (Homo sapiens, UniProt P49840); experiment: GSK 3α enzyme inhibition (Z-LYTE FRET); assay type: biochemical; details: read-out: IC50 Values for Enzyme Inhibition GSK3α
T5 construct: purchased Life Technologies
T5 sequence (P49840 whole entry, canonical isoform): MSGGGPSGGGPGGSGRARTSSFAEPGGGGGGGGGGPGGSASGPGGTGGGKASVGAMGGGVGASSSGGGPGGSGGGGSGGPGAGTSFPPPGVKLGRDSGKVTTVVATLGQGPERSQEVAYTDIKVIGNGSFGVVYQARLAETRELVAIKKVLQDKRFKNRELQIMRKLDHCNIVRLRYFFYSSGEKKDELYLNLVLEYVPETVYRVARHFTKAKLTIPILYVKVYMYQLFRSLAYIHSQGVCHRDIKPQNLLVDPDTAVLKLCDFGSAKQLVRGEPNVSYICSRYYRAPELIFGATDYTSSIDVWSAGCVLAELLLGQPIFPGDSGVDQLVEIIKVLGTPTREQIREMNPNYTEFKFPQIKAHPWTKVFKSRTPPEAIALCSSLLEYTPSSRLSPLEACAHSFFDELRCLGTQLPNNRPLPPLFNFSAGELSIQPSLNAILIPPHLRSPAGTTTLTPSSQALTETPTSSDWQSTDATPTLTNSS
Procedure: as §1
Development reagent (protease, 5 μL) was added for 1 h prior to detection in a fluorescence microplate reader (EnVision, Perkin Elmer).
as §3

T1 sequence (P12931 whole entry): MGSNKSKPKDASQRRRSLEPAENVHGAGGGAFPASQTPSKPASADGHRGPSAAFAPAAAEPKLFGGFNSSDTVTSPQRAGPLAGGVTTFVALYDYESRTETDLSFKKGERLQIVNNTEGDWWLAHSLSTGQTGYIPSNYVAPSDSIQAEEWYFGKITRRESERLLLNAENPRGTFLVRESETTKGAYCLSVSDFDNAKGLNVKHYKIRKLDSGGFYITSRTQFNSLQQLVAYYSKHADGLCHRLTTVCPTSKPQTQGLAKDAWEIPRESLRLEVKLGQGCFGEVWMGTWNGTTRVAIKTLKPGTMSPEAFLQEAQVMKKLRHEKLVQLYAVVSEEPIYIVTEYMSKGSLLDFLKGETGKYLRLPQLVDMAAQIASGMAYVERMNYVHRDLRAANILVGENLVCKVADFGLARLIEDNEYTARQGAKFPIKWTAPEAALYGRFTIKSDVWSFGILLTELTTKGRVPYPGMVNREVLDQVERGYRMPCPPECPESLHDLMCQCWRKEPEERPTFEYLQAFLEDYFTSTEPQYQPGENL

SMILES: CCc1cncc(Nc2cc(COc3ccc(NC(=O)Nc4cc(C(C)(C)C)nn4-c4ccc(C)cc4)c4ccccc34)ccn2)n1 [Compound of the invention, 1-(3-(tert-butyl)-1-(p-tolyl)-1H-pyrazol-5-yl)-3-(4-((2-((6-ethylpyrazin-2-yl)amino)pyridin-4-yl)methoxy)naphthalen-1-yl)urea]
- IC50 (c-Src): 199 nM
- IC50 (Syk): > 16000 nM
- IC50 [1]: 26 nM
- inhibition of HRV-induced IL-8 [2]: dose-dependent inhibition
- IC50 (BEAS2B cells): 61.1 nM
- IC50 (p38MAPKγ (MAPK12)): 152 nM
- IC50 (GSK 3α enzyme isoform): > 15100 nM
